Laboratory results published in US6384065B1, “Spiro compounds or salts thereof and preventives/remedies for autoimmune diseases and AP-1 inhibitors containing the same” (Toyama Chemical Co., Ltd., priority 1998, dated 2002).

Experiments:
[1] = system: type II collagen-induced arthritis; test: Type II collagen-induced arthritis in mice (arthritis score, joint-bone destruction score); type: in vivo, DBA/1J mice; conditions: 100 mg/kg orally once every day from day 21 to day 35, mean
Protocol: The compound of Example 20 (1) was tested for the effect on type II collagen-induced arthritis, using 8 weeks old, male DBA/1J mice (Japan Charles River). Emulsion was prepared by mixing an equal volume of bovine type II collagen (prepared by Koken) in 0.1N acetic acid (2 mg/ml) and Freund's complete adjuvant (prepared by Nacalai Tesque). Arthritis was induced by intradermal injection of 0.2 ml (the quantity of antigen: 200 μg/head) of the emulsion into the skin of the tail root twice (day 0 and day 21). The test compound was suspended in 0.5% solution of methyl cellulose, and 100 mg/kg was orally administered once every day from day 21 to day 35. […] Severity of the arthritis was scored 0: no change, 1: only one or two swelling of the joints or slight swelling of the ankle or toes, 2: swelling and/or rubor in further joints, 3: extensive swelling of whole paw, and the maximum possible score for arthritis was 12 points. As to the severity of destruction of joints and bones, X ray photographs of four paws were taken (Softex), and severity of destruction in the second to fifth articulationes interphalangeae, first to fifth articulationes metacarpophalangeae and metatarsophalangeae, and calcaneus was scored by 0 or 1 in accordance with presence or absence of destruction, and the severity of destruction in the carpus and tarsal was scored by 0 to 3. […]

[2] = system: transcription factor AP-1; test: Luciferase assay (TPA-stimulated p(TRE)5TK-Luc reporter transfectant); type: cell-based; conditions: Mus musculus, TPA stimulation 16 hours, Luc activity, read-out: Inhibition rate (%); for inhibition at 30 µg/mL: 30 μg/ml test compound; for inhibition at 100 µg/mL: 100 μg/ml test compound
Protocol: (§1) A reporter plasmid was prepared according to the method of R. I. Scheinman et al. [Mol. Cell. Biol., Vol. 15, Pages 943-953 (1995)]. That is, a plasmid p(TRE)5TK-Luc was constructed by connecting a promoter of thymidine kinase (TK) at an upstream site of luciferase (Luc) gene which is a reporter gene and a 5-times repeated TRE sequence at a further upstream site thereof. The plasmid was co-transfected simultaneously with p3′SS plasmid (prepared by Stratagene Co.) by the electrotranspolation method onto mouse 3T3 fibroblast (ATCC: CCL-163) cultured in a Dulbecco's modified Eagle's medium (DMEM) containing 10% fetal calf serum (FCS). Then the cells were cultured in DMEM containing 10% FCS and 100 μg/ml of Hygromycin B. Using the expression of Hygromycin-resistant gene contained in p3′SS as an indicator, cell strains of the transfectant into which the objective plasmid had been introduced stably were selected. Furthermore in the test mentioned below, cell strains showing expression of Luc gene under stimulation of 12-O-tetradecanoylphorbol 13-acetate (TPA, prepared by Sigma Co.) were used, and DMEM containing 10% FCS and 100 μg/ml of Hygromycin B was used for the culture of cells.
The cells prepared above were suspended in culture medium, and plated 96 well-plate at 1×10^4 cells/0.1 ml. After culturing it overnight, 50 μl of test compounds solution and 40 μl of culture medium were added, and incubated. After one hour 10 μl of 200 ng/ml TPA solution was added and the culture was continued for an additional 16 hours to stimulate the cells. The end of cluture, the cells were recovered, and cell lysis solutions were obtained. The Luc activity of the cell lysates was measured with a chemilluminescent detection kit (Pica Gene; manufactured by Toyo Ink Co.). The suppressive effect of each test compound could be assessed as a decrease of Luc activity, and the inhibition rate (%) was calculated according to the following formula:
Inhibition rate (%)=(1−Luc activity of cells to which the compound is added/Luc activity of cells to which the compound is not added)×100
(§2) The compounds of Example No. 1, 6(3), 6(5), 13, 15, 17, 18(1), 18(8), 20(1) and 20(2) were converted to sodium salts according to the method of Example 42, and then used for the assay.

mouse 3T3 fibroblast = test: XTT assay (cytotoxicity test); type: cell-based; conditions: 16 hours culture, T/C %
Protocol: as §1
The same culture plate as above was prepared, and test compound and TPA were added under the same conditions as above, after which a culture was carried out for 16 hours. The end of cluture, XTT reagent prepared according to the method of D. A. Scudievo [Cancer Res., Vol. 48, Pages 4827-4833 (1988)] was added and made to react for a prescribed period of time. Then, the amount of formazan formed by alive cells was analyzed by measuring absorbance at 450 nm using a micro plate reader. In this test, a decrease in absorbance is observed when the test compounds show a cytotoxicitic or a growth inhibitory activity. Cell viability (T/C %) was determined according to the following formula:
Cell Viability Rate (T/C %)=(Absorbance of well to which compound is added/Absorbance of well to which the compound was not added)×100
as §2

Question: CC(C)c1ccc(OC2CCC3(CC2)SC(C)(C)[C@H](C(=O)O)N3C(=O)c2ccccc2)cc1 (stereo partly drawn) [20 (1), (3S)-4-Benzoyl-8-(4-isopropylphenoxy)-2,2-dimethyl-1-thia-4-azaspiro[4.5]decane-3-carboxylic acid] was tested. Which Joint-bone destruction score ([1]; X ray of four paws, control 20 ± 3) did it give?
Answer: Its Joint-bone destruction score is 14 ± 3.

Question: What about the Arthritis score ([1]; maximum score 12, control 10 ± 1) of the same molecule?
Answer: Its Arthritis score is 8 ± 1.

Question: And the inhibition at 30 µg/mL [2]?
Answer: The inhibition at 30 µg/mL was 72%.

Question: What about the “Cell viability (%)” value (mouse 3T3 fibroblast; 30 μg/ml test compound) of the same molecule?
Answer: Its value is 98%.

Question: For CC(C)c1ccc(OC2CCC3(CC2)SC(C)(C)[C@@H](C(=O)O)N3C(=O)c2ccccc2)cc1 (stereo partly drawn) [20 (2), (3R)-4-Benzoyl-8-(4-isopropylphenoxy)-2,2-dimethyl-1-thia-4-azaspiro[4.5]decane-3-carboxylic acid], which inhibition at 100 µg/mL [2] is on record?
Answer: Its inhibition at 100 µg/mL is 93%.

Question: What about the “Cell viability (%)” value (mouse 3T3 fibroblast; 100 μg/ml test compound) of the same molecule?
Answer: Its value is 92%.

Question: How did the inhibition at 100 µg/mL [2] turn out when CC(C)c1ccc(OC2CCC3(CC2)SC[C@@H](C(=O)O)N3C(=O)c2cnc3ccccc3c2)cc1 (stereo partly drawn) [41 (2), (3R)-8-(4-Isopropylphenoxy)-4-(3-quinolylcarbonyl)-1-thia-4-azaspiro[4.5]decane-3-carboxylic acid] was run?
Answer: Its inhibition at 100 µg/mL is 94%.

Question: What about the “Cell viability (%)” value (mouse 3T3 fibroblast; 100 μg/ml test compound) of the same molecule?
Answer: Its value is 71%.

Question: What does the source list for Cc1nc(C(=O)N2[C@H](C(=O)O)CSC23CCC(Oc2ccc(C(C)C)cc2)CC3)cs1 (stereo partly drawn) [41 (3), (3R)-8-(4-Isopropylphenoxy)-4-[(2-methyl-1,3-thiazol-4-yl)carbonyl]-1-thia-4-azaspiro[4.5]decane-3-carboxylic acid]?
Answer: inhibition at 100 µg/mL [2]: 80%; Cell viability (%) (mouse 3T3 fibroblast; 100 μg/ml test compound): 97%

Question: How did the inhibition at 100 µg/mL [2] turn out when CC(C)c1ccc(OC2CCC3(CC2)SC[C@@H](C(=O)O)N3C(=O)c2cnccn2)cc1 (stereo partly drawn) [41 (4), (3R)-8-(4-Isopropylphenoxy)-4-(2-pyrazinylcarbonyl)-1-thia-4-azaspiro[4.5]decane-3-carboxylic acid] was run?
Answer: The inhibition at 100 µg/mL was 96%.

Question: What about the “Cell viability (%)” value (mouse 3T3 fibroblast; 100 μg/ml test compound) of the same molecule?
Answer: The value was 82%.

Question: How did the inhibition at 100 µg/mL [2] turn out when COc1ccc(C(=O)N2[C@H](C(=O)O)CSC23CCC(Oc2ccc(C(C)C)cc2)CC3)cc1 (stereo partly drawn) [41 (5), (3R)-8-(4-Isopropylphenoxy)-4-(4-methoxybenzoyl)-1-thia-4-azaspiro[4.5]decane-3-carboxylic acid] was run?
Answer: Its inhibition at 100 µg/mL is 94%.

Question: What about the “Cell viability (%)” value (mouse 3T3 fibroblast; 100 μg/ml test compound) of the same molecule?
Answer: The value was 90%.

Question: For CCN(CC)C(=O)c1ccc(C(=O)N2[C@H](C(=O)O)CSC23CCC(Oc2ccc(C(C)C)cc2)CC3)cc1 (stereo partly drawn) [41 (6), (3R)-4-{4-[(Diethylamino)carbonyl]benzoyl}-8-(4-isopropylphenoxy)-1-thia-4-azaspiro[4.5]decane-3-carboxylic acid], which inhibition at 100 µg/mL [2] is on record?
Answer: The inhibition at 100 µg/mL was 49%.

Question: What about the “Cell viability (%)” value (mouse 3T3 fibroblast; 100 μg/ml test compound) of the same molecule?
Answer: The value was 97%.

Question: Which results are given for CCOC(=O)[C@@H]1CSC2(CCC(Oc3ccc(C(C)C)cc3)CC2)N1C(=O)c1ccccc1 (stereo partly drawn) [Example 21, ethyl (3R)-4-benzoyl-8-(4-isopropylphenoxy)-1-thia-4-azaspiro[4.5]decane-3-carboxylate]?
Answer: inhibition at 30 µg/mL [2]: 28%; Cell viability (%) (mouse 3T3 fibroblast; 30 μg/ml test compound): 74%

Question: How did the inhibition at 100 µg/mL [2] turn out when CC(C)c1ccc(OC2CCC3(CC2)SC[C@@H](C(=O)NCCC(=O)O)N3C(=O)c2ccccc2)cc1 (stereo partly drawn) [Example 29, 3-({[(3R)-4-benzoyl-8-(4-isopropylphenoxy)-1-thia-4-azaspiro[4.5]-decan-3-yl]carbonyl}amino)-propionic acid] was run?
Answer: Its inhibition at 100 µg/mL is 92%.

Question: What about the “Cell viability (%)” value (mouse 3T3 fibroblast; 100 μg/ml test compound) of the same molecule?
Answer: Its value is 110%.

Question: For CC(C)c1ccc(OC2CCC3(CC2)SC[C@@H](C(=O)O)N3C(=O)c2ccc[nH]2)cc1 (stereo partly drawn) [Example 40, (3R)-8-(4-isopropylphenoxy)-4-(1H-2-pyrrolylcarbonyl)-1-thia-4-azaspiro[4.5]decane-3-carboxylic acid], which inhibition at 100 µg/mL [2] is on record?
Answer: The inhibition at 100 µg/mL was 91%.

Question: And the “Cell viability (%)” value (mouse 3T3 fibroblast; 100 μg/ml test compound)?
Answer: The value was 108%.

Question: Which inhibition at 30 µg/mL [2] does the source give for CC(C)CC=C1CCC2(CC1)SC(C)(C)[C@@H](C(=O)O)N2C(=O)CCC(C)C (stereo partly drawn) [Example 44, (3R)-2,2-dimethyl-8-(3-methylbutylidene)-4-(4-methylpentanoyl)-1-thia-4-azaspiro[4.5]decane-3-carboxylic acid] here?
Answer: The inhibition at 30 µg/mL was 62%.

Question: And the “Cell viability (%)” value (mouse 3T3 fibroblast; 30 μg/ml test compound)?
Answer: The value was 75%.

Question: Which results are given for CC(C)CC=C1CCC2(CC1)SC(CC(=O)OC(C)C)C(=O)N2CC(=O)O (centres unmarked) [Example 47, 2-[2-(2-isopropoxy-2-oxoethyl)-8-(3-methylbutylidene)-3-oxo-1-thia-4-azaspiro[4.5]decan-4-yl]-acetic acid]?
Answer: inhibition at 30 µg/mL [2]: 47%; Cell viability (%) (mouse 3T3 fibroblast; 30 μg/ml test compound): 83%
